Like-named read-outs stand apart in the source and are kept apart here.
Experiments:
MDA-MB-231 cells = experiment: Inhibitory effect on MDA-MB-231 cell proliferation; assay type: cell-based; conditions: Homo sapiens; MDA-MB-231, 72 h incubation, Cell Counting-Lite 2.0
Procedure: (1) Cell plating: First, tumor cells MDA-MB-231 were cultured with corresponding culture medium, the cells were digested with trypsin and centrifuged, then the cells were resuspended and counted, and the cells were adjusted to an appropriate concentration for plating.
(§1) Co-incubation of the compounds of the present invention and tumor cells: 90 μL of cell suspension was added to 96-well plates respectively. After cell adherence, 10 μL of bioactive molecules (compounds of the present invention) diluted with culture medium were added into the wells of the above plates, and incubated for 72 h.
(§2) In vitro cell viability detection: After the incubation, 50 μL of Cell Counting-Lite™ 2.0 reagent (Vazyme) was added to each well, shaken and mixed well in the dark, and reacted for 10 minutes before testing. Microplate reader (manufacturer: BMG, Model: PHERA Star-FS) was used for reading. The culture wells without cells were used as the background RLU, and the culture wells with cells but no compound were used as the cell control RLU. Cell inhibition rate=1−(sample RLU−background RLU)/(cell control RLU−background RLU)×100%. The half-inhibition concentration (IC50) of compound was calculated by fitting the curve according to the four-parameter model.

NCI-H358 cells = experiment: Inhibitory effect on NCI-H358 cell proliferation; assay type: cell-based; conditions: Homo sapiens; NCI-H358, 72 h incubation, Cell Counting-Lite 2.0
Procedure: (1) Cell plating: First, tumor cells NCI-H358 were cultured with corresponding culture medium, the cells were digested with trypsin and centrifuged, then the cells were resuspended and counted, and the cells were adjusted to an appropriate concentration for plating.
as §1, §2

MDA-MB-453 cells = experiment: Inhibitory effect on MDA-MB-453 cell proliferation; assay type: cell-based; conditions: Homo sapiens; MDA-MB-453, 72 h incubation, Cell Counting-Lite 2.0
Procedure: (1) Cell plating: First, tumor cells MDA-MB-453 were cultured with corresponding culture medium, the cells were digested with trypsin and centrifuged, then the cells were resuspended and counted, and the cells were adjusted to an appropriate concentration for plating.
as §1, §2

NCI-N87 cells = experiment: Inhibitory effect on NCI-N87 cell proliferation; assay type: cell-based; conditions: Homo sapiens, read-out: IC50 (nM), inhibitory activity on NCI-N87 cell proliferation
Procedure: (1) Cell plating: First, tumor cells NCI-N87 were cultured with corresponding culture medium, the cells were digested with trypsin and centrifuged, then the cells were resuspended and counted, and the cells were adjusted to an appropriate concentration for plating.
as §1, §2

HCC1806 cells = experiment: Inhibitory effect on HCC1806 cell proliferation; assay type: cell-based; conditions: Homo sapiens; HCC1806, 72 h incubation, Cell Counting-Lite 2.0
Procedure: (1) Cell plating: First, tumor cells HCC1806 were cultured with corresponding culture medium, the cells were digested with trypsin and centrifuged, then the cells were resuspended and counted, and the cells were adjusted to an appropriate concentration for plating.
as §1, §2

HT29 cells = experiment: Inhibitory effect on HT29 cell proliferation; assay type: cell-based; conditions: Homo sapiens, HT-29; HT29, 72 h incubation, Cell Counting-Lite 2.0
Procedure: (1) Cell plating: First, tumor cells HT29 were cultured with corresponding culture medium, the cells were digested with trypsin and centrifuged, then the cells were resuspended and counted, and the cells were adjusted to an appropriate concentration for plating.
as §1, §2

[1] = Permeability test in MDCK cell model; assay type: in vitro ADME; conditions: dog; for efflux ratio at 120 min, 2 μM: pH 7.4, 2.00 μM, Papp(B→A)/Papp(A→B), absence of P-gp inhibitor, read-out: Efflux ratio (ERa)
Procedure: (§3) The MDCK cell model was used to evaluate the permeability of the compounds, the LC-MS/MS method was used to determine the concentration of the substance to be tested, and the apparent permeability coefficient (Papp) and efflux ratio were calculated [Efflux ratio=Papp(B→A)/Papp(A→B)].
(§4) Complete culture medium: 10% fetal bovine serum and 1% penicillin/streptomycin were added to MEM culture medium.
(§5) Digestive solution: 0.05% trypsin-EDTA.
(§6) HBSS buffer: HBSS containing Ca^2+, Mg^2+.
(§7) Permeating solution: HBSS containing 10 mM Hepes, 4% BSA, pH 7.4.
(§8) Compound stock solution: a certain amount of the compound to be tested was weighed and formulated with DMSO to prepare a 10 mM stock solution.
(§9) MDCK cells (26th generation) in the logarithmic growth phase were digested and dispersed evenly with 0.05% trypsin-EDTA, and then inoculated into the Transwell chamber at 3*10^5 cells/cm^2, with 200 μL on the A side and 1000 μL on the B side. After inoculation, the medium was changed once every day and the culturing was carried out for 3 to 4 days.
(§10) The cell culture medium was discarded by pipetting, then washing was carried out three times with the permeating solution. 200 μL of permeating solution was added to A side and 1000 μL of permeating solution was added to B side. A voltage resistance meter was used to measure the cell transmembrane resistance (TEER). After the TEER value of the cells was measured, the permeating solution on both sides was discarded by pipetting, and the solution was added. After 120 minutes, 150 μL of samples were taken from A side and B side, respectively, and frozen at −80° C. before testing. Then, 10 μg/ml Fluorescent Yellow was added to A side. After incubation for 30 minutes, 100 μL of solution at B side was pipetted and added into a 96-well white plate. The fluorescence value was measured at the wavelengths of Ex=485 nm and Em=530 nm using a microplate reader, and the permeance was calculated (which was less than 1%).
(§11) 80 μL of the compound to be tested was taken, added to 320 μL of acetonitrile solution containing internal standard (30 ng/mL Tolbutamide), vortexed, and centrifuged for 10 min (4000 rpm, 4° C.), and the supernatant was taken for LC-MS/MS analysis.
(§12) Excel 2013 was used to calculate Papp values and Papp ratio of B side→A side to A side→B side, and the recovery rates of each Control Compound and the compound to be tested were calculated.
(§13) Apparent permeability coefficient (Papp) of compound was calculated according to the following formula:
(§14) C0 was the initial concentration (μM) of the drug to be tested at the donor, (dCr/dt)×Vr was the rate (μM/s) at which the drug to be tested appeared at the receiver, Vr was the solution volume (mL) at the receiver, and A was the surface area (cm^2) of polycarbonate membrane.
(§15) Evaluation criteria: Low permeability: Papp≤0.5 (×10^−6 cm/s) • Medium permeability: 0.5<Papp<2.5 (×10^−6 cm/s) • High permeability: Papp≥2.5 (×10^−6 cm/s)
(§16) Efflux ratio (ER) was calculated according to Papp:
(§17) [formula] • wherein, Papp(B→A) was the apparent permeability coefficient of the drug to be tested from the BL (baso-lateral) end to the AP (apical) end, and Papp (A→B) was the apparent permeability coefficient of the drug to be tested from the AP end to the BL end.
(§18) • Probably being an efflux transporter substrate (Probably): ERa≥2 and ERa/ERi>2 • Likely being an efflux transporter substrate (Likely): ERa≥2 • Unlikely or impossibly being an efflux transporter substrate (Poor or non): ERa<2 • wherein, ERi and ERa were the efflux ratios of the compound to be tested in the presence and absence of P-gp inhibitor, respectively.

MDCK cells = experiment: Permeability test in MDCK cell model; assay type: in vitro ADME
Procedure: as §3, §4, §5, §6, §7, §8, §9, §10, §11, §12, §13, §14, §15, §16, §17, §18

Jeko-1 cells = experiment: Inhibitory effect on Jeko-1 cell proliferation; assay type: cell-based; conditions: Homo sapiens; Jeko-1, 72 h incubation, Cell Counting-Lite 2.0
Procedure: (1) Cell plating: First, tumor cells Jeko-1 were cultured with corresponding culture medium, the cells were resuspended and counted, and finally the cells were adjusted to an appropriate concentration for plating.
as §1, §2

[2] = pH 7.4, concentration 2.00 μM, 120 minutes, A to B, read-out: Papp A to B
[3] = pH 7.4, concentration 2.00 μM, 120 minutes, B to A, read-out: Papp B to A
[4] = NCI-N87, 72 h incubation, Cell Counting-Lite 2.0

SMILES: CC[C@@]1(O)C(=O)OCc2c1cc1n(c2=O)Cc2c-1nc1cc(F)c(Cl)cc1c2CN [Compound 1-1, (S)-11-(aminomethyl)-9-chloro-4-ethyl-8-fluoro-4-hydroxy-1,12-dihydro-14H-pyrano[3′,4′:6,7]indolizino[1,2-b]quinolin-3,14(4H)-dione]
- IC50 (MDA-MB-231 cells): 3.55 nM
- IC50 (NCI-H358 cells): 25.7 nM
- IC50 (MDA-MB-453 cells): 291 nM
- IC50 (NCI-N87 cells; NCI-N87, 72 h): 8.59 nM
- IC50 (HCC1806 cells): 1.23 nM
- IC50 (HT29 cells): 1.07 nM
- efflux ratio at 120 min, 2 μM [1]: 1.41
- Papp A→B at 120 min, 2 μM [1, 2]: 2.59 ×10⁻⁶ cm/s
- Papp B→A at 120 min, 2 μM [1, 3]: 3.65 ×10⁻⁶ cm/s
- Efflux transporter substrate evaluation from efflux ratio (MDCK cells; 2.00 μM): not efflux transporter substrates or were weak efflux transporter substrates
- Permeability class according to the Papp(A→B) results (MDCK cells; 2.00 μM): high-permeability

SMILES: CC[C@@]1(O)C(=O)OCc2c1cc1n(c2=O)Cc2c-1nc1cc(F)c(Cl)cc1c2CNC(=O)C(O)C1CC1 (stereo partly shown) [Compound 2-4]
- IC50 (NCI-H358 cells): 53.4 nM
- IC50 (Jeko-1 cells): 0.34 nM
- IC50 (MDA-MB-453 cells): 95.6 nM
- IC50 (NCI-N87 cells; NCI-N87, 72 h): 5.72 nM
- IC50 (HCC1806 cells): 1.08 nM
- IC50 (HT29 cells): 5.99 nM

SMILES: CC[C@@]1(O)C(=O)OCc2c1cc1n(c2=O)Cc2c-1nc1cc(F)c(Cl)cc1c2CNC(=O)C(O)C(F)(F)F (stereo partly drawn) [Compound 2-19, N—(((S)-9-chloro-4-ethyl-8-fluoro-4-hydroxy-3,14-dioxo-3,4, 12,14-tetrahydro-1H-pyrano[3′,4′:6,7]indolizino[1,2-b]quinolin-11-yl)methyl)-3,3,3-trifluoro-2-hydroxypropionamide]
- IC50 (NCI-H358 cells): 12.7 nM
- IC50 (Jeko-1 cells): 1.09 nM
- IC50 (NCI-N87 cells; [4]): 5.69 nM
- IC50 (HCC1806 cells): 0.78 nM
- IC50 (HT29 cells): 2.93 nM
- Papp A→B at 120 min, 2 μM ([1]; pH 7.4): 0.5 ×10⁻⁶ cm/s
- Papp B→A at 120 min, 2 μM ([1]; pH 7.4): 0.73 ×10⁻⁶ cm/s
- efflux ratio at 120 min, 2 μM [1]: 1.48
- Permeability class according to the Papp(A→B) results (MDCK cells): low-permeability
- Efflux transporter substrate evaluation from efflux ratio (MDCK cells; 2.00 μM): not efflux transporter substrates or were weak efflux transporter substrates

SMILES: C=CC(O)C(=O)NCc1c2c(nc3cc(F)c(Cl)cc13)-c1cc3c(c(=O)n1C2)COC(=O)[C@]3(O)CC (stereo partly drawn) [Compound 2-22, N—(((S)-9-chloro-4-ethyl-8-fluoro-4-hydroxy-3,14-dioxo-3,4, 12,14-tetrahydro-1H-pyrano[3′,4′:6,7]indolizino[1,2-b]quinolin-11-yl)methyl)-2-hydroxy-3-enamine]
- IC50 (Jeko-1 cells): 1.11 nM
- IC50 (NCI-N87 cells; [4]): 7.27 nM
- IC50 (HCC1806 cells): 6.09 nM
- IC50 (HT29 cells): 10.2 nM
- Papp A→B at 120 min, 2 μM ([1]; pH 7.4): 0.71 ×10⁻⁶ cm/s
- Papp B→A at 120 min, 2 μM ([1]; pH 7.4): 1.59 ×10⁻⁶ cm/s
- efflux ratio at 120 min, 2 μM [1]: 2.24
- Permeability class according to the Papp(A→B) results (MDCK cells): medium-permeability
- Efflux transporter substrate evaluation from efflux ratio (MDCK cells; 2.00 μM): could be efflux transporter substrates

SMILES: CC[C@@]1(O)C(=O)OCc2c1cc1n(c2=O)Cc2c-1nc1cc(F)c(C)c3c1c2[C@@H](NS(N)(=O)=O)CC3 [Compound 7-1, (1S,9S)-1-sulfamoylamido-9-ethyl-5-fluoro-9-hydroxy-4-methyl-1,2,3,9,12,15-hexahydro-10H,13H-benzo[de]pyranol[3′,4′:6,7]indolizino[1,2-b]quinolin-10,13-dione]
- IC50 (MDA-MB-231 cells): 31 nM
- IC50 (NCI-H358 cells): 268 nM
- IC50 (Jeko-1 cells): 4.07 nM
- IC50 (MDA-MB-453 cells): 50.2 nM
- IC50 (NCI-N87 cells; NCI-N87, 72 h): 31.3 nM
- IC50 (HCC1806 cells): 3.67 nM
- IC50 (HT29 cells): 10.1 nM

SMILES: CC[C@@]1(O)C(=O)OCc2c1cc1n(c2=O)Cc2c-1nc1cc(F)c(C)cc1c2CN [Control Compound 1, reference compound]
- efflux ratio at 120 min, 2 μM [1]: 2.06
- Papp A→B at 120 min, 2 μM [1, 2]: 1.31 ×10⁻⁶ cm/s
- Papp B→A at 120 min, 2 μM [1, 3]: 2.71 ×10⁻⁶ cm/s
- Efflux transporter substrate evaluation from efflux ratio (MDCK cells; 2.00 μM): could be efflux transporter substrates
- Permeability class according to the Papp(A→B) results (MDCK cells; 2.00 μM): medium-permeability

SMILES: CC[C@@]1(O)C(=O)OCc2c1cc1n(c2=O)Cc2c-1nc1cc(F)c(C)cc1c2CNC(=O)CO [Control Compound 2, reference compound]
- efflux ratio at 120 min, 2 μM [1]: 28
- Papp A→B at 120 min, 2 μM [1, 2]: 0.01 ×10⁻⁶ cm/s
- Papp B→A at 120 min, 2 μM [1, 3]: 0.4 ×10⁻⁶ cm/s
- Efflux transporter substrate evaluation from efflux ratio (MDCK cells; 2.00 μM): could be efflux transporter substrates
- Permeability class according to the Papp(A→B) results (MDCK cells; 2.00 μM): low-permeability

SMILES: CC[C@@]1(O)C(=O)OCc2c1cc1n(c2=O)Cc2c-1nc1cc(F)c(C)c3c1c2[C@@H](NC(=O)CO)CC3 [Control Compound 3, reference compound]
- efflux ratio at 120 min, 2 μM [1]: 15.2
- Papp A→B at 120 min, 2 μM [1, 2]: 0.31 ×10⁻⁶ cm/s
- Papp B→A at 120 min, 2 μM [1, 3]: 4.65 ×10⁻⁶ cm/s
- Efflux transporter substrate evaluation from efflux ratio (MDCK cells; 2.00 μM): could be efflux transporter substrates
- Permeability class according to the Papp(A→B) results (MDCK cells; 2.00 μM): low-permeability

Source: patent publication US20260258051A1, “Camptothecin Compound, Preparation Method Therefor and Use Thereof” (SICHUAN KELUN-BIOTECH BIOPHARMACEUTICAL CO., LTD., priority 2022, published 2026)
